From publication PMC3567921 (Clinical cancer research : an official journal of the …, 2012) come the findings set out here.

This assay has as its target T1, Axl (Homo sapiens, UniProt P30530).
T1 sequence (P30530 26-894): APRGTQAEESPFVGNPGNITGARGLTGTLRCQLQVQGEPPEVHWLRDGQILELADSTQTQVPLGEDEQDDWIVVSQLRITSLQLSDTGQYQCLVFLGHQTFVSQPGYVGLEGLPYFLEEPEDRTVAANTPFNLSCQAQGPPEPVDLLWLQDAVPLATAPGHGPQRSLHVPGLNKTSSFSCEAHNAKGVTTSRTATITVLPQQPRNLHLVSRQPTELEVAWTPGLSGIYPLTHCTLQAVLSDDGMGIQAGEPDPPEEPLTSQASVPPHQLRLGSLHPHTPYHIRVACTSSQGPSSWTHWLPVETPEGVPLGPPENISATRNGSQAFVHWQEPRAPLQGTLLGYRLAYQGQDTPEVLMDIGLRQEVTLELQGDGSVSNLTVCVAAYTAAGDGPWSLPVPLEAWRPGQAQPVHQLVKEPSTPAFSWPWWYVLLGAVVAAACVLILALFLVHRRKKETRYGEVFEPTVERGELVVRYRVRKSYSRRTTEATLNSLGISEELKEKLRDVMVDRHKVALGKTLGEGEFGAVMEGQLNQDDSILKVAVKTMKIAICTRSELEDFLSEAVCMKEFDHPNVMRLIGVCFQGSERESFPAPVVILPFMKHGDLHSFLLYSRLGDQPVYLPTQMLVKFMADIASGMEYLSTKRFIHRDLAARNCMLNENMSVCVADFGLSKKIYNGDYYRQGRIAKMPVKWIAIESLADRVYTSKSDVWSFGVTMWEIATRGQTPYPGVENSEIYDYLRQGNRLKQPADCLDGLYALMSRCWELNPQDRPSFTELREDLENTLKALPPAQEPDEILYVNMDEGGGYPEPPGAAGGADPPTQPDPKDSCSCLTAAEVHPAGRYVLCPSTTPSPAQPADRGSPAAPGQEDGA
As to the kind of experiment: anti-FLAG immunoprecipitation, phosphotyrosine Western blot densitometry. It counts as cell-based.

For orientation: EC50 means the concentration that produces a half-maximal response. Low readings indicate a more potent agent, high ones a less potent agent. `Cc1c[nH]c2nc(Nc3ccc(N4CCN(C)CC4)c(F)c3)nc(-c3cccc(CC#N)c3)c12` [SGI-7079] gave an EC50 of less than 0.1 µM.
